Experimental findings from patent US6500843B2, “Inhibitors of rotamase enzyme activity” (GPI NIL Holdings, Inc., priority 1995, dated 2002) are described below.

Read-outs that look alike come from different tables or passages of the source. A value given as a limit tells only on which side of the number the result lay.

Experiment [1] deals with rotamase activity of FKBP-12 (Homo sapiens, UniProt P62942). Kind of experiment: Rotamase inhibition (FKBP-12). It is filed as biochemical.
For experiment [2], the system named is chick dorsal root ganglion explant cultures. In words: Neurite outgrowth in chick dorsal root ganglion explant cultures. It is filed as cell-based. Conditions: for EC50: Gallus gallus.
Procedure: Explants of chick DRG were cultured as described in FIG. 17 above. […] At 48 hrs., neurite outgrowth was quantitated and the cultures were photographed. Dorsal root ganglion were dissected from chick embryos of ten day gestation. […] Twenty-four hours later, the DRG's were treated with various concentrations of nerve growth factor, immunophilin ligands or combinations of NGF plus drugs. Forty-eight hours after drug treatment, the ganglia were visualized under phase contrast or Hoffman Modulation contrast with a Zeiss Axiovert inverted microscope. Photomicrographs of the explants were made, and neurite outgrowth was quantitated. […] Three to four DRGs are cultured per well, and each treatment was performed in duplicate.
The next experiment addresses recombinant FKBP-12 (Homo sapiens, UniProt P62942). In words: Inhibition of 3H-FK506 binding to recombinant FKBP-12. The note with it: read-out: [3H]-FK506-FKBP12 (IC50).
The test system of experiment [3] is Sprague-Dawley rats, sciatic nerve crush. In words: Sciatic nerve axotomy (crush) model of nerve regeneration. It is filed as in vivo, rat. The procedure:
Six-week old male Sprague-Dawley rats were anesthetized, and the sciatic nerve exposed and crushed, at the level of the hip, by forceps. Test compounds or vehicle were administered subcutaneously just prior to the lesion and daily for the following 18 days. Sections of the sciatic nerve were stained with Holmes silver stain to quantify the number of axons, and Luxol fast blue to quantify the level of myelination. Eighteen days after lesion, there was a significant decrease in the number of axons (50% decrease as compared to non-lesioned control) and degree of myelination (90% decrease as compared to non-lesioned control) in animal treated with vehicle.

A further experiment relates to PC-12 cells. In words: Neurite outgrowth in PC-12 cells in the presence of NGF. The note with it: for Concentration for maximal effects on neurite extension: 4 days; for EC50: Rattus norvegicus.
The test system of a further experiment is dorsal root ganglia. Kind of experiment: Neurite outgrowth in rat embryonic day 16 dorsal root ganglia explants. The note with it: no added NGF. It is filed as cell-based. As for the experimental part: Stage E16 embryos were removed from pregnant Sprague-Dawley rats and the dorsal root ganglia dissected. Whole ganglia explants were cultured in collagen-coated 35 mm dishes (Falcon) using N2 medium (Dulbecco's Modified Eagle medium and Ham's F12 medium mixed 1:1 and supplemented with progesterone, selenium, insulin, putrescine, glucose, and penicillin-streptomycin) at 37° C. in a 15% CO2 environment. […] Ganglia were observed every 2-3 days under phase-contrasting using an Olympus IMT-2 inverted microscope, and measurements of axon length were made. The axonal field of each ganglion was divided into four quadrants, and the length of the longest axons in each quadrant was measured in microns using an eye-piece micrometer. The average of these measurements was taken as the axon length for the ganglion.

In a further experiment the target is FKBP (Rattus norvegicus, UniProt Q62658). Kind of experiment: [3H]FK506 binding to PC-12 cell homogenates. The note with it: untreated PC-12 cell homogenates, 250 pM radioligand.
The subject of a further experiment is calcineurin. In words: Calcineurin inhibition. It is filed as biochemical. The note with it: YES/NO.
[4] abbreviates: Table I, read-out: Rotamase Inhibition Ki.
[5] abbreviates: Neuron, Table I, cultured sensory neurons, read-out: Neutrophic ED50 Chick DRGs.
[6] abbreviates: 30 mg/kg s.c. daily, 18 days after lesion.
The mark [7] stands for this setting: s.c. daily for 18 days following the lesion.
Setting [8] is: PC-12, 96 h, read-out: Half-maximal stimulation of neurite extension.
Setting [9] is: 0.1 ng/ml NGF, 48 hr, read-out: EC50 for stimulating nerve outgrowth in the ganglia.

rotamase activity of FKBP-12, sequence (P62942 whole entry): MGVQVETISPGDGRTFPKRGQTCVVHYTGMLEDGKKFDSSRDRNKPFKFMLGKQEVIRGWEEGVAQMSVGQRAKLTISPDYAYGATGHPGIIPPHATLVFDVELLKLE
recombinant FKBP-12, sequence (P62942 whole entry, species assumed): as the sequence (P62942 whole entry) above
FKBP, sequence (Q62658 whole entry): as the sequence (P62942 whole entry) above, with P10S, M50T, T76I counted along it

Turning to `COc1ccc(CCCCOC(=O)[C@@H]2CCCCN2C(=O)Cc2cc(OC)c(OC)c(OC)c2)cc1` [Example 6], the inhibition constant Ki (commonly a measure of affinity in units of concentration, obtained from inhibition or displacement) in experiment [1] (setting [4]) stood at 140 nM. For the same compound, in experiment [2] (setting [5]), the EC50 is 25 nM.
With `COc1ccc(CCCCOC(=O)[C@@H]2CCCCN2C(=O)C(=O)c2cc(OC)c(OC)c(OC)c2)cc1` [Example 9], the EC50 in experiment [2] (setting [5]) was 0.03 nM.
As for `CCC(C)(C)C(=O)C(=O)N1CCCCC1C(=O)OCCCc1cc(OC)c(OC)c(OC)c1` (stereo not shown) [Example 13], at recombinant FKBP-12 (Table 3), the IC50 (as a rule, the point on the concentration scale where inhibition reaches its midpoint) is 4000 nM. In addition, in experiment [3] (setting [6]), the “Axon Number (% Control)” value was found to be 100 % Control and the “Myelin Level” value worked out at 50. In addition, in experiment [3] (setting [7]), the “Decrease in axon number as compared to non-lesioned control” value is listed as 5% and the “Decrease in degree of myelination as compared to control” value was 50%. Also, the Ki in experiment [1] (setting [4]) is 25 nM.
Consider `CC1(C)COC(=O)CCCCCCCCCOC(=O)[C@@H]2CCCCN2C(=O)C1=O` [Example 19], for which the inhibition constant Ki in experiment [1] (setting [4]) was 12 nM. The EC50 in experiment [2] (setting [5]) worked out at 0.017 nM.
Turning to `CCOC(=O)C1CCCCN1C(=O)C(C)=O` (stereo not shown) [Example 36], the inhibition constant Ki in experiment [1] (setting [4]) was more than 10000 nM.
`CCOC(=O)C1CCCCN1C(=O)C(=O)C(C)(C)CC` (stereo not shown) [Example 41]: the inhibition constant Ki in experiment [1] (setting [4]) worked out at 1300 nM.
For the compound `CCOC(=O)C1CCCCN1C(=O)C(=O)c1ccccc1` (stereo not shown) [Example 50], the Ki in experiment [1] (setting [4]) is more than 10000 nM.
Consider `CCC(C)(C)C(=O)C(=O)N1CCCCC1C(=O)OCC=Cc1ccc(Cl)c(Cl)c1` (stereo not shown) [Example 90], for which the Ki in experiment [1] (setting [4]) amounted to 1800 nM. Moreover, the EC50 in experiment [2] (setting [5]) was found to be 2500 nM.
In the case of `CCC(C)(C)C(=O)C(=O)N1CCCCC1C(=O)OCC=Cc1cc(OC)c(OC)c(OC)c1` (stereo not shown) [Example 91], the Ki in experiment [1] (setting [4]) came to 28 nM. Besides, the EC50 in experiment [2] (setting [5]) was determined as 200 nM.
Take `CCC(C)(C)C(=O)C(=O)N1CCCCC1C(=O)OCC=Cc1ccccc1` (stereo not shown) [Example 92]: the Ki in experiment [1] (setting [4]) was determined as 39 nM. For the same compound, in experiment [2] (setting [5]), the EC50 was 90 nM.
Regarding `CCC(C)(C)C(=O)C(=O)N1CCCC[C@H]1C(=O)OCCCc1cc(OC)ccc1OC` [Example 93], the Ki in experiment [1] (setting [4]) worked out at 75 nM.
For `CCC(C)(C)C(=O)C(=O)N1CCCC[C@H]1C(=O)OCCCc1ccc2c(c1)OCO2` [Example 94], the Ki in experiment [1] (setting [4]) was determined as 70 nM.
Regarding `COc1ccc(CCCCOC(=O)[C@@H]2CCCCN2C(=O)C(=O)c2ccccc2)cc1` [Example 95], the Ki in experiment [1] (setting [4]) stood at 165 nM.
Turning to `O=C(C(=O)N1CCCC[C@H]1C(=O)OCCCc1ccccc1)c1ccccc1` [Example 96], in experiment [1] (setting [4]), the inhibition constant (Ki) is 740 nM.
Regarding `CCC(C)(C)C(=O)C(=O)N1CCCC[C@H]1C(=O)OCCCc1cccnc1` [Example 98], in experiment [1] (setting [4]), the inhibition constant Ki was found to be 130 nM. Besides, the EC50 in experiment [2] (setting [5]) came out at 75 nM.
`CCC(C)(C)C(=O)C(=O)N1CCCC[C@H]1C(=O)OC(CCCc1ccccc1)CCCc1ccccc1` [Example 99]: the EC50 in experiment [2] (setting [5]) came to 5 nM.
Turning to `CCC(C)(C)C(=O)C(=O)N1CCCC[C@H]1C(=O)OCCCCc1ccc(OC)cc1` [Example 100], the Ki in experiment [1] (setting [4]) came out at 60 nM.
For `CCC(C)(C)C(=O)C(=O)N1CCCCC1C(=O)OC(CCCc1ccccc1)CCc1ccc(OC)cc1` (stereo not shown) [Example 101], the Ki in experiment [1] (setting [4]) turned out to be 15 nM. The EC50 in experiment [2] (setting [5]) worked out at 0.17 nM.
On to `CCC(C)(C)C(=O)C(=O)N1CCCC[C@H]1C(=O)OCCCc1cc(OC)ccc1OC` [Example 102], for which the Ki in experiment [1] (setting [4]) was determined as 12 nM. The “Neurite outgrowth in photomicrographs” value in experiment [2] (1 pM, 100 pM and 100 nM (FIGS. 19-21)) is listed as “promoting neurite outgrowth”. Further, the EC50 in experiment [2] (setting [5]) worked out at 205 nM.
Take `CCC(C)(C)C(=O)C(=O)N1CCCC[C@H]1C(=O)OCCCc1ccc2c(c1)OCO2` [Example 103]: in experiment [1] (setting [4]), the Ki worked out at 120 nM. The EC50 in experiment [2] (setting [5]) worked out at 3 nM.
In the case of `CCC(C)(C)C(=O)C(=O)N1CCCC[C@H]1C(=O)OC(CCCCc1ccccc1)c1ccccc1` (stereo partly shown) [Example 104], the Ki in experiment [1] (setting [4]) was 20 nM.
With `COc1ccc(CCCCOC(=O)[C@@H]2CCCCN2C(=O)C(=O)C2CCCCC2)cc1` [Example 105], the inhibition constant Ki in experiment [1] (setting [4]) came to 103 nM.
For `O=C(C(=O)N1CCCC[C@H]1C(=O)OCCCC1CCCCC1)C1CCCCC1` [Example 106], in experiment [1] (setting [4]), the Ki was 760 nM. The EC50 in experiment [2] (setting [5]) is 1 nM.
On the same counts, the results for `O=C(C(=O)N1CCCC[C@H]1C(=O)OCCCc1ccccc1)C1CCCCC1` [Example 107] are 210 nM and 0.82 nM.
In the case of `C=CC[C@@H]1/C=C(\C)C[C@H](C)C[C@H](OC)[C@H]2O[C@@](O)(C(=O)C(=O)N3CCCC[C@H]3C(=O)O[C@H](/C(C)=C/[C@@H]3CC[C@@H](O)[C@H](OC)C3)[C@H](C)[C@@H](O)CC1=O)[C@H](C)C[C@@H]2OC` [FK506], in the experiment on PC-12 cells (0.5 ng/ml NGF, 100 nM drug, 96 hours), the “Maximal enhancement of neurite outgrowth” value came to 2.5 fold. Moreover, the “Concentration for maximal effects on neurite extension” value (shortened to “Concentration for maximal effects”) in the experiment on PC-12 cells (0.5 ng/ml NGF) lay in the range of 5 to 100 nM. Also, in the experiment with PC-12 cells (1 ng/ml NGF, 48 hr), the “Concentration eliciting the same maximal outgrowth observed with 50 ng/ml NGF” value stood at 1 nM. Besides, in the experiment on PC-12 cells (FK506 100 nM, 48 hr), the “Reduction of the NGF concentration needed to elicit maximal outgrowth” value is recorded as 20-50 fold. For the same compound, the EC50 with PC-12 cells (PC-12, 48 h, read-out: Half maximal effects on neurite outgrowth) is approximately 0.1 nM; in the experiment on PC-12 cells (setting [8]), 0.5 nM; with PC-12 cells (PC-12, read-out: Neurite Outgrowth (ED50)), 0.5 nM; in experiment [2] (setting [9]), 1 to 2 nM. For the same compound, the “Concentration producing a noticeable increase in growth” value with dorsal root ganglia came to 1 nM. For the same compound, the “Concentration producing detectable augmentation of neurite outgrowth” value with dorsal root ganglia was determined as 1 pM. Besides, the “Concentration required for maximal outgrowth” value in the experiment with dorsal root ganglia is on record as 1 pM. The IC50 on FKBP fell in the range of 1 to 2 nM.
As to `CO[C@H]1C[C@@H]2CC[C@@H](C)[C@@](O)(O2)C(=O)C(=O)N2CCCC[C@H]2C(=O)O[C@H]([C@H](C)C[C@@H]2CC[C@@H](O)[C@H](OC)C2)CC(=O)[C@H](C)/C=C(\C)[C@@H](O)[C@@H](OC)C(=O)[C@H](C)C[C@H](C)/C=C/C=C/C=C/1C` [Rapamycin], the “Concentration for maximal effects” value in the experiment on PC-12 cells (0.5 ng/ml NGF) was in the range of 10 to 100 nM. Further, in the experiment with PC-12 cells (0.1-0.5 ng/ml NGF, 100 nM drug, 96 hours), the “Stimulation of neurite outgrowth” value is given as 3-4 fold. The EC50 in the experiment with PC-12 cells (setting [8]) was 0.2 to 0.4 nM; in experiment [2] (setting [9]), 1 nM.
Regarding `COC1CC2CCC(C)C(O)(O2)C(=O)C(=O)N2CCCCC2C(=O)OC(C(C)CC2CCC(O)C(OC)C2)CC(=O)C(C)C=C(C)C(O)C(OC)C(=O)C(C)CC(C)C2C=CC(C=C1C)n1c(=O)n(-c3ccccc3)c(=O)n12` (stereo not shown) [WAY-124466], the IC50 on recombinant FKBP-12 (Table 2) was found to be 10 nM. The “Concentration for maximal effects” value with PC-12 cells (0.5 ng/ml NGF) is given as 100-1,000 nM. Moreover, in the experiment with PC-12 cells (setting [8]), the EC50 was approximately 10 nM. Further, in the experiment on PC-12 cells (picomolar concentrations, 0.5 ng/ml NGF, 4 days (FIG. 15)), the “Potentiation of neurite extension elicited by NGF” value was “potentiate neurite extension”. Also, the “Calcineurin Inhibition” value in the experiment on calcineurin is recorded as “fails to inhibit calcineurin”. Moreover, in experiment [1] (Table 2, read-out: Rotamase (Ki)), the Ki worked out at 12 nM. Further, the “Potentiation of NGF-dependent neurite production in sensory ganglia” value in experiment [2] (100 nM, plus or minus 0.1 ng/ml NGF, 48 hrs (FIG. 18)) is given as “potentiate NGF-dependent neurite production”.
Take NGF: nerve growth factor: in the experiment with PC-12 cells (48 hr), the “NGF concentration for maximal augmentation of neurite outgrowth” value was 50 to 100 ng/mL. Besides, in the experiment with PC-12 cells (FK506 100 nM, 48 hr), the “NGF concentration for half maximal outgrowth in the presence of FK506” value was 0.1 ng/mL. The “Neurite extension as % of maximal effects evident at 50 ng/ml NGF” value in the experiment on PC-12 cells (NGF alone at 0.1 ng/ml) is “about 15%”.
